Reference: patent US7063959B1, “Compositions of the SOC/CRAC calcium channel protein family” (priority 1998, dated 2006)

Test system: SOC/CRAC calcium channel
Assay: Pharmacologic behavior of SOC/CRAC: calcium influx elicited by store depletion (fura-2) in SOC/CRAC-expressing cells
Type: cell-based
Conditions: SOC/CRAC expressed in RBL-2H3 mast cells by recombinant vaccinia virus; stores depleted with thapsigargin; cells pre-incubated with reagent; effect substantially the same as on endogenous thapsigargin-dependent calcium influx

Structure (SMILES): CCCCCCCCCCCCC/C=C/[C@@H](O)[C@@H](N)CO [sphingosine, Sphingosine]
- SOC/CRAC-enhanced calcium influx: inhibited
